# Measured values from patent US9023789B2, “Amylin analogs and pharmaceutical compositions thereof” (Novo Nordisk A/S, priority 2012, dated 2015).
# Read-outs that look alike come from different tables or passages of the source. Numbered stars: 1 amine (or outer) side, 2 acyl side, 3 side chain; on linkers, the order of the positions; unused ones are H or OH. Bridge positions count the residues as written; N and C are the ends. Side chains are listed from the residue outwards. Peptide text beside a SMILES is read from it. * marks the point of attachment. C20 diacid = O=C(O)CCCCCCCCCCCCCCCCCCC(=O)*; γGlu = O=C(O)[C@H](CCC(=O)[*:2])N[*:1]; AEEA = NCCOCCOCC(=O)O
# Experiments:
# Male Wistar rats = assay: ASSAY (XII) effect from single subcutaneous administration on plasma calcium in rats; format: in vivo, rat
# Summary of the method: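 Male Wistar rats (~250 g), groups of five, received a single subcutaneous dose at time 0. Blood drawn at −15 min, 1, 2, 4, 7, 12 and 24 h; total calcium measured in heparin plasma, reported as mean±SEM.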
# [1] = ASSAY (IV) determination of solubility; format: physicochemical
# Summary of the method: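 Solubility measured by UPLC of supernatant after centrifugation, following 18 h at room temperature. Peptide ([…] in water) was diluted 1:1 into 100 mM glycylglycine (pH 3.0, 4.0, 5.0) or bistrispropane (pH 6.0-8.0).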
# [2] = ASSAY (IX) pK, determination of T½ in mini-pig; format: in vivo; details: male, Göttingen, minipig, plasma, iv, 2 nmol/kg
# [3] = ASSAY (X) pK, determination of T½ in rat; format: in vivo; details: male, Sprague Dawley, plasma, iv, 20 nmol/kg
# Male Sprague-Dawley rats = assay: ASSAY (XI) single subcutaneous administration, food intake monitored for 48 hours in rats; format: in vivo, rat; details: for Food intake red (%) 0-24 h / Food intake red (%) 24-48 h: single s.c., compared to vehicle
# Summary of the method: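 Male Sprague-Dawley rats from Taconic Europe, weighing about 250 g on the test day, were singly housed in an online food intake monitoring system (Ellegaard MBRose, Denmark). Before the study they were acclimatized to a reversed light cycle, with lights on from 10 PM to 10 AM. Each rat then received one subcutaneous dose of the analogue, and data are reported as mean±SEM.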
# [4] = biological target: T1, human calcitonin receptor (Homo sapiens, UniProt P30988); assay: ASSAY (VII) binding to the human calcitonin receptor (SPA, 125I-Calcitonin); details: read-out: hCTR bind IC50;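 also: cell membranes (35 ng/µL) combined with SPA beads in 40 µL of pH 7.4 Hepes buffer, 384-well format, signal counted on a TopCounter instrument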
# T1 construct: expressed in transfected cells
# T1 sequence (P30988 25-474): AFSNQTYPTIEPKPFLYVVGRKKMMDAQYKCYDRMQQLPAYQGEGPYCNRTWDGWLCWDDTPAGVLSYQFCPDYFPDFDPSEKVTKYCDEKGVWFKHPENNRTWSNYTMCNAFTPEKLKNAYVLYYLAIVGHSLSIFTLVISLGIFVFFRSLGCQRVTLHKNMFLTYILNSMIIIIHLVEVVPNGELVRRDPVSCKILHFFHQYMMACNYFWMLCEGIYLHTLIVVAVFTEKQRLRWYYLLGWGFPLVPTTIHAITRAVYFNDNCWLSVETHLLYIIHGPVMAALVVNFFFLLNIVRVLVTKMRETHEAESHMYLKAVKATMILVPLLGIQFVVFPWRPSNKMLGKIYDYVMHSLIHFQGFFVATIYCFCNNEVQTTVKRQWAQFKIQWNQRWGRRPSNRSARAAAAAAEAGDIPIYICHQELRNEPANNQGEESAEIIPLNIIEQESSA
# [5] = biological target: T2, human calcitonin (a) receptor in BHK570 cells (Homo sapiens, UniProt P30988); assay: ASSAY (II)a functional assay, human calcitonin receptor (CRE luciferase); format: cell-based; details: read-out: hCTR funct. EC50
# T2 construct: expressed in transfected cells
# T2 sequence (P30988 25-474): T1 sequence (P30988 25-474)
# Summary of the method: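 Receptor activation is measured as cAMP-driven CRE-luciferase expression in BHK cells expressing the calcitonin receptor, with RAMP-3 co-expressed to form the amylin 3(a) receptor. Cells are exposed to compound for 3 hours at 37° C, and luciferase is then quantified by luminescence.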
# [6] = bistrispropane buffer, pH 6.5, read-out: Solubility pH 6.5 Concentration
# [7] = bistrispropane buffer, pH 7.5, read-out: Solubility pH 7.5 Concentration
# [8] = bistrispropane buffer, pH 6.0, read-out: Solubility pH 6.0 Concentration
# [9] = bistrispropane buffer, pH 7.0, read-out: Solubility pH 7.0 Concentration
# [10] = bistrispropane buffer, pH 8.0, read-out: Solubility pH 8.0 Concentration
# [11] = glycylglycine buffer, pH 3.0, read-out: Solubility pH 3.0 Concentration
# [12] = glycylglycine buffer, pH 4.0, read-out: Solubility pH 4.0 Concentration
# [13] = glycylglycine buffer, pH 5.0, read-out: Solubility pH 5.0 Concentration
"solubility at 18 h [1, 6] [µM]","solubility at 18 h [1, 7] [µM]","solubility at 18 h [1, 8] [µM]","solubility at 18 h [1, 9] [µM]","solubility at 18 h [1, 10] [µM]","solubility at 18 h [1, 11] [µM]","solubility at 18 h [1, 12] [µM]","solubility at 18 h [1, 13] [µM]",half-life [2] [days],half-life [3] [min],IC50 [4] [nM],EC50 [5] [nM],Structure (SMILES),other results
≥ 200,106,≥ 200,155,110,≥ 200,≥ 200,≥ 200,4.15,1260,–,–,"CC[C@H](C)[C@H](NC(=O)[C@H](C)NC(=O)CNC(=O)[C@H](Cc1ccccc1)NC(=O)[C@H](CC(N)=O)NC(=O)[C@@H]1CCCN1C(=O)[C@H](CO)NC(=O)[C@H](CO)NC(=O)[C@H](Cc1c[nH]cn1)NC(=O)[C@H](CCCNC(=N)N)NC(=O)[C@H](CC(C)C)NC(=O)[C@H](Cc1ccccc1)NC(=O)[C@H](CC(=O)O)NC(=O)[C@H](C)NC(=O)[C@H](CC(C)C)NC(=O)[C@H](CCCNC(=N)N)NC(=O)[C@H](CCC(N)=O)NC(=O)[C@@H](NC(=O)[C@H](C)NC(=O)[C@@H]1CSSC[C@H](NC(=O)[C@@H](N)CCCCNC(=O)CC[C@H](NC(=O)CC[C@H](NC(=O)CCCCCCCCCCCCCCCCCCC(=O)O)C(=O)O)C(=O)O)C(=O)N[C@@H](CC(N)=O)C(=O)N[C@@H]([C@@H](C)O)C(=O)N[C@@H](C)C(=O)N[C@@H]([C@@H](C)O)C(=O)N1)[C@@H](C)O)C(=O)N1CCC[C@H]1C(=O)N[C@@H](CO)C(=O)N[C@@H](CO)C(=O)N[C@H](C(=O)N[C@@H](CC(N)=O)C(=O)N[C@H](C(=O)NCC(=O)N[C@@H](CO)C(=O)N[C@@H](CCCNC(=N)N)C(=O)N[C@H](C(=O)N[C@@H](Cc1ccc(O)cc1)C(N)=O)[C@@H](C)O)C(C)C)[C@@H](C)O [Example 52, N-ε-1-{(S)-4-carboxy-4-[(S)-4-carboxy-4-(19-carboxynonadecanoylamino)butyrylamino]butyryl}-[Asp14,Arg17,Pro21,Pro27,Arg35]-human amylin]","Plasma calcium red (%) 0-12 h (maximal) (Male Wistar rats; single s.c., 30 nmol/kg, 0-12 h, compared to vehicle): 12%; suppression of plasma calcium level relative to vehicle (Male Wistar rats; single subcutaneous administration, increasing doses (all doses tested), monitored over 24 hours): None of the doses trigger a notable suppression of the calcium level; Food intake red (%) 0-24 h (Male Sprague-Dawley rats; 3 nmol/kg): 25%; Food intake red (%) 24-48 h (Male Sprague-Dawley rats; 3 nmol/kg): 15%; Food intake red (%) 0-24 h (Male Sprague-Dawley rats; 30 nmol/kg): 63%; Food intake red (%) 24-48 h (Male Sprague-Dawley rats; 30 nmol/kg): 50%; food intake monitored over 48 hours (Male Sprague-Dawley rats; single subcutaneous administration, 30 nmol/kg, versus vehicle): reduces food intake"
≥ 200,≥ 200,≥ 200,≥ 200,140,≥ 200,≥ 200,≥ 200,3.17,–,17.2,7.37,CC[C@H](C)[C@H](NC(=O)[C@H](C)NC(=O)CNC(=O)[C@H](Cc1ccccc1)NC(=O)[C@H](CC(N)=O)NC(=O)[C@@H]1CCCN1C(=O)[C@H](CO)NC(=O)[C@H](CO)NC(=O)[C@H](Cc1c[nH]cn1)NC(=O)[C@H](CCCNC(=N)N)NC(=O)[C@H](CC(C)C)NC(=O)[C@H](Cc1ccccc1)NC(=O)[C@H](CC(N)=O)NC(=O)[C@H](C)NC(=O)[C@H](CC(C)C)NC(=O)[C@H](CCCNC(=N)N)NC(=O)[C@H](CCC(N)=O)NC(=O)[C@@H](NC(=O)[C@H](C)NC(=O)[C@@H]1CSSC[C@H](NC(=O)[C@@H](N)CCCCNC(=O)COCCOCCNC(=O)CC[C@H](NC(=O)CCCCCCCCCCCCCCCCCCC(=O)O)C(=O)O)C(=O)N[C@@H](CC(N)=O)C(=O)N[C@@H]([C@@H](C)O)C(=O)N[C@@H](C)C(=O)N[C@@H]([C@@H](C)O)C(=O)N1)[C@@H](C)O)C(=O)N1CCC[C@H]1C(=O)N[C@@H](CO)C(=O)N[C@@H](CO)C(=O)N[C@H](C(=O)N[C@@H](CC(N)=O)C(=O)N[C@H](C(=O)NCC(=O)N[C@@H](Cc1c[nH]cn1)C(=O)N[C@@H](CC(N)=O)C(=O)N[C@H](C(=O)N[C@@H](Cc1ccc(O)cc1)C(N)=O)[C@@H](C)O)C(C)C)[C@@H](C)O [Example 76] (H-K([AEEA-γGlu-C20 diacid])CNTATCATQRLANFLRHSSPNFGAIPSSTNVGHNTY-NH2; disulfide 2-7; N-terminus assumed),–
≥ 200,147,≥ 200,≥ 200,59,≥ 200,≥ 200,≥ 200,3.38,1080,–,–,CC[C@H](C)[C@H](NC(=O)[C@H](C)NC(=O)CNC(=O)[C@H](Cc1ccccc1)NC(=O)[C@H](CC(N)=O)NC(=O)[C@@H]1CCCN1C(=O)[C@H](CO)NC(=O)[C@H](CO)NC(=O)[C@H](Cc1c[nH]cn1)NC(=O)[C@H](CCCNC(=N)N)NC(=O)[C@H](CC(C)C)NC(=O)[C@H](Cc1ccccc1)NC(=O)[C@H](CC(N)=O)NC(=O)[C@H](C)NC(=O)[C@H](CC(C)C)NC(=O)[C@H](CCCNC(=N)N)NC(=O)[C@H](CCC(N)=O)NC(=O)[C@@H](NC(=O)[C@H](C)NC(=O)[C@@H]1CSSC[C@H](NC(=O)[C@@H](N)CCCCNC(=O)CC[C@H](NC(=O)CCCCCCCCCCCCCCCCCCC(=O)O)C(=O)O)C(=O)N[C@@H](CC(N)=O)C(=O)N[C@@H]([C@@H](C)O)C(=O)N[C@@H](C)C(=O)N[C@@H]([C@@H](C)O)C(=O)N1)[C@@H](C)O)C(=O)N1CCC[C@H]1C(=O)N[C@@H](CO)C(=O)N[C@@H](CO)C(=O)N[C@H](C(=O)N[C@@H](CC(N)=O)C(=O)N[C@H](C(=O)NCC(=O)N[C@@H](Cc1c[nH]cn1)C(=O)N[C@@H](CC(N)=O)C(=O)N[C@H](C(=O)N[C@@H](Cc1ccc(O)cc1)C(N)=O)[C@@H](C)O)C(C)C)[C@@H](C)O [Example 77],Solubility pH 6.5 Concentration ([1]; pH 6.5 (Table 9a)): ≧200 μM; Solubility pH 7.0 Concentration ([1]; pH 7.0 (Table 9a)): ≧200 μM
≥ 200,≥ 200,≥ 200,≥ 200,≥ 200,≥ 200,≥ 200,≥ 200,3.54,–,80.4,3.88,CC[C@H](C)[C@H](NC(=O)[C@H](C)NC(=O)CNC(=O)[C@H](Cc1ccccc1)NC(=O)[C@H](CC(N)=O)NC(=O)[C@@H]1CCCN1C(=O)[C@H](CO)NC(=O)[C@H](CO)NC(=O)[C@H](Cc1c[nH]cn1)NC(=O)[C@H](CCCNC(=N)N)NC(=O)[C@H](CC(C)C)NC(=O)[C@H](Cc1ccccc1)NC(=O)[C@H](Cc1c[nH]cn1)NC(=O)[C@H](C)NC(=O)[C@H](CC(C)C)NC(=O)[C@H](CCCNC(=N)N)NC(=O)[C@H](CCC(N)=O)NC(=O)[C@@H](NC(=O)[C@H](C)NC(=O)[C@@H]1CSSC[C@H](NC(=O)[C@@H](N)CCCCNC(=O)CC[C@H](NC(=O)CCCCCCCCCCCCCCCCCCC(=O)O)C(=O)O)C(=O)N[C@@H](CC(N)=O)C(=O)N[C@@H]([C@@H](C)O)C(=O)N[C@@H](C)C(=O)N[C@@H]([C@@H](C)O)C(=O)N1)[C@@H](C)O)C(=O)N1CCC[C@H]1C(=O)N[C@@H](CO)C(=O)N[C@@H](CO)C(=O)N[C@H](C(=O)N[C@@H](CC(N)=O)C(=O)N[C@H](C(=O)NCC(=O)N[C@@H](CCCNC(=N)N)C(=O)N[C@@H](CC(N)=O)C(=O)N[C@H](C(=O)N[C@@H](Cc1ccc(O)cc1)C(N)=O)[C@@H](C)O)C(C)C)[C@@H](C)O [Example 85] (H-K([γGlu-C20 diacid])CNTATCATQRLAHFLRHSSPNFGAIPSSTNVGRNTY-NH2; disulfide 2-7 (inferred); N-terminus assumed),–
